Reference: patent publication US9725445B2, “Cycloalkyl nitrile pyrazolo pyridones as Janus kinase inhibitors” (Merck Sharp & Dohme Corp., priority 2013, dated 2017)

Assays:
JAK1 = JAK1 (Homo sapiens (Human), UniProt P23458); assay: Jak biochemical HTRF assay, JAK1; details: HTRF biochemical assay, recombinant GST-tagged catalytic domain; read-out: JAK1 IC50
JAK2 = JAK2 (Homo sapiens (Human), UniProt O60674); assay: Jak biochemical HTRF assay, JAK2; details: HTRF biochemical assay, recombinant GST-tagged catalytic domain; read-out: JAK2 IC50
Sequence of JAK2 (O60674 849-1124): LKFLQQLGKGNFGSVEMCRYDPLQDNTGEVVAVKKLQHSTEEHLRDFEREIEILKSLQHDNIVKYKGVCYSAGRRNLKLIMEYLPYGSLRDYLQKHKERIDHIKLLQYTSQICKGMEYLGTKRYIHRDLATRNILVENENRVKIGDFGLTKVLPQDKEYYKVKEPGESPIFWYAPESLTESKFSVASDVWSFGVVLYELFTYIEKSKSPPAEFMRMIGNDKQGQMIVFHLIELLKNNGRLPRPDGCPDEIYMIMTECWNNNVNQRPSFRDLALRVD
Procedure: Jak Biochemical HTRF Assay Protocol
The ability of compounds to inhibit the activity of JAK1, JAK2, JAK3, and Tyk2 was measured using a recombinant purified GST-tagged catalytic domain for each enzyme (Invitrogen JAK1 #M4290, JAK2 #M4290, JAK3 #M4290, Tyk2 #M4290) in an HTRF format biochemical assay. […] The basic assay protocol is as follows: First, 250 nL of diluted compounds in DMSO were dispensed into the wells of a dry 384-well Black plate (Greiner #781076) using a Labcyte Echo 555 acoustic dispenser. Subsequent reagent additions employed an Agilent Bravo. […] After equilibration, 2 μL of 10×ATP in 1× assay buffer was added to initiate the kinase reaction and the plates were shaken and then incubated at room temperature for 120 minutes. […] Plates were shaken and centrifuged and then incubated 60 minutes at room temperature and then read on a Perkin Elmer Envision (λex=337 nm, λem=665 and 615 nm, TRF delay time=20 μs). HTRF signal=10,000*665 nm reading/615 nm reading. After normalization to untreated controls, the percent inhibition of the HTRF signal at each compound concentration was calculated. The plot of percent inhibition versus the log of compound concentration was fit with a 4-parameter dose response equation to calculate IC50 values.
Final Reaction Conditions were:
Examples of the instant invention were evaluated in JAK1 and JAK2 in vitro binding assays.

Sequence of JAK1 (P23458 875-1153): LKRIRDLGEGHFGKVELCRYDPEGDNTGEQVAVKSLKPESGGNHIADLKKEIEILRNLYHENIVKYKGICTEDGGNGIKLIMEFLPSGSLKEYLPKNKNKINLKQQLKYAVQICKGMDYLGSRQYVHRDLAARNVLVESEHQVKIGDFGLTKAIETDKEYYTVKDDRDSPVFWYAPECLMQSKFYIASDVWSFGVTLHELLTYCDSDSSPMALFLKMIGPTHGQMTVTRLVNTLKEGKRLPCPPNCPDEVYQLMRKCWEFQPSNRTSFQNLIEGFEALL

An IC50 (JAK1) of 0.26 nM and an IC50 (JAK2) of 2.2 nM were found for `N#C[C@H]1CCCC[C@@H]1n1nc(Nc2cccc([C@@H](N)C(F)(F)F)c2)c2c(=O)[nH]ccc21` [Example 7-2, (1S,2S)-2-[3-({3-[(1R)-1-amino-2,2,2-trifluoroethyl]phenyl}amino)-4-oxo-4,5-dihydro-1H-pyrazolo[4,3-c]pyridin-1-yl]cyclohexanecarbonitrile] in this work.

An IC50 (JAK1) of 0.41 nM and an IC50 (JAK2) of 3.3 nM were found for `Cn1ccc(NC(=O)Cc2cccc(Nc3nn([C@H]4CCCC[C@@H]4C#N)c4cc[nH]c(=O)c34)c2)n1` [Example 3-11, 2-[3-({1-[(1S,2S)-2-cyanocyclohexyl]-4-oxo-4,5-dihydro-1H-pyrazolo[4,3-c]pyridin-3-yl}amino)phenyl]-N-(1-methyl-1H-pyrazol-3-yl)acetamide] in this work.

An IC50 (JAK1) of 0.46 nM and an IC50 (JAK2) of 13 nM were found for `CC(C)(C)[S@+]([O-])N[C@H](c1cccc(Nc2nn([C@H]3CCCC[C@@H]3C#N)c3cc[nH]c(=O)c23)c1)C(F)(F)F` [Example 3-42, N-{(1R)-1-[3-({1-[(1S,2S)-2-cyanocyclohexyl]-4-oxo-4,5-dihydro-1H-pyrazolo[4,3-c]pyridin-3-yl}amino)phenyl]-2,2,2-trifluoroethyl}-2-methylpropane-2-sulfinamide] in this work.

An IC50 (JAK1) of 0.17 nM and an IC50 (JAK2) of 0.79 nM were found for `COCCNS(=O)(=O)c1ccc(Nc2nn([C@H]3CCCC[C@@H]3C#N)c3cc[nH]c(=O)c23)cc1` [Example 3-21, 4-({1-[(1S,2S)-2-cyanocyclohexyl]-4-oxo-4,5-dihydro-1H-pyrazolo[4,3-c]pyridin-3-yl}amino)-N-(2-methoxyethyl)benzenesulfon-amide] in this work.

An IC50 (JAK1) of 0.12 nM and an IC50 (JAK2) of 0.43 nM were found for `N#C[C@H]1CCCC[C@@H]1n1nc(Nc2ccc3c(c2)CN(CC(F)(F)F)C3=O)c2c(=O)[nH]ccc21` [Example 3-10, (1S,2S)-2-(4-oxo-3-{[1-oxo-2-(2,2,2-trifluoroethyl)-2,3-dihydro-1H-isoindol-5-yl]amino}-4,5-dihydro-1H-pyrazolo[4,3-c]pyridin-1-yl)cyclohexanecarbonitrile] in this work.

An IC50 (JAK1) of 0.26 nM and an IC50 (JAK2) of 0.15 nM were found for `Cc1cc(Nc2nn([C@H]3CCCC[C@@H]3C#N)c3cc[nH]c(=O)c23)ccc1C(C)(C)n1nccn1` [Example 15-32, (1S,2S)-2-[3-({3-methyl-4-[1-methyl-1-(2H-1,2,3-triazol-2-yl)ethyl]phenyl}amino)-4-oxo-4,5-dihydro-1H-pyrazolo[4,3-c]pyridin-1-yl]cyclohexanecarbonitrile] in this work.

An IC50 (JAK1) of 0.066 nM and an IC50 (JAK2) of 0.54 nM were found for `N#C[C@H]1CCCC[C@@H]1n1nc(Nc2ccc3c(c2)CN(CC2CC2)S3(=O)=O)c2c(=O)[nH]ccc21` [Example 3-63, (1S,2S)-2-(3-{[2-(cyclopropylmethyl)-1,1-dioxido-2,3-dihydro-1,2-benzisothiazol-5-yl]amino}-4-oxo-4,5-dihydro-1H-pyrazolo[4,3-c]pyridin-1-yl)cyclohexanecarbonitrile] in this work.

An IC50 (JAK1) of 0.14 nM and an IC50 (JAK2) of 0.24 nM were found for `CC(C)(c1ccc(Nc2nn([C@H]3CCCC[C@@H]3C#N)c3cc[nH]c(=O)c23)cc1)n1nccn1` [Example 15-29, (1S,2S)-2-[3-({4-[1-methyl-1-(2H-1,2,3-triazol-2-yl)ethyl]phenyl}amino)-4-oxo-4,5-dihydro-1H-pyrazolo[4,3-c]pyridin-1-yl]cyclohexanecarbonitrile] in this work.

An IC50 (JAK1) of 0.55 nM and an IC50 (JAK2) of 3.6 nM were found for `N#C[C@H]1CCCC[C@@H]1n1nc(Nc2ccc(-c3ncno3)cc2)c2c(=O)[nH]ccc21` [Example 15-6, (1S,2S)-2-(3-{[4-(1,2,4-oxadiazol-5-yl)phenyl]amino}-4-oxo-4,5-dihydro-1H-pyrazolo[4,3-c]pyridin-1-yl)cyclohexanecarbonitrile] in this work.

An IC50 (JAK1) of 0.041 nM and an IC50 (JAK2) of 0.52 nM were found for `CC(C)(C)OC(=O)CN1Cc2cc(Nc3nn([C@H]4CCCC[C@@H]4C#N)c4cc[nH]c(=O)c34)ccc2S1(=O)=O` [Example 3-151, tert-butyl [5-({1-[(1S,2S)-2-cyanocyclohexyl]-4-oxo-4,5-dihydro-1H-pyrazolo[4,3-c]pyridin-3-yl}amino)-1,1-dioxido-1,2-benzisothiazol-2(3H)-yl]acetate] in this work.

An IC50 (JAK1) of 3.7 nM and an IC50 (JAK2) of 233 nM were found for `C[C@H](N[C@@H]1CC[C@H](n2nc(Nc3ccc(OC(F)(F)F)cc3)c3c(=O)[nH]ccc32)[C@@H](C#N)C1)C1CC1` [Example 5-27, (1S,2S,5R)-5-(((S)-1-cyclopropylethyl)amino)-2-(4-oxo-3-((4-(trifluoromethoxy)phenyl)amino)-4,5-dihydro-1H-pyrazolo[4,3-c]pyridin-1-yl)cyclohexanecarbonitrile] in this work.

An IC50 (JAK1) of 0.12 nM and an IC50 (JAK2) of 0.71 nM were found for `CC(C)(C)OC(=O)CC(C)(C)N1Cc2cc(Nc3nn([C@H]4CCCC[C@@H]4C#N)c4cc[nH]c(=O)c34)ccc2S1(=O)=O` [Example 3-155, tert-butyl 3-[5-({1-[(1S,2S)-2-cyanocyclohexyl]-4-oxo-4,5-dihydro-1H-pyrazolo[4,3-c]pyridin-3-yl}amino)-1,1-dioxido-1,2-benzisothiazol-2(3H)-yl]-3-methylbutanoate] in this work.

An IC50 (JAK1) of 0.056 nM and an IC50 (JAK2) of 0.28 nM were found for `CC1(C)Cc2cc(Nc3nn([C@H]4CCCC[C@@H]4C#N)c4cc[nH]c(=O)c34)ccc2S1(=O)=O` [Example 21-1, (1S,2S)-2-(3-((2,2-Dimethyl-1,1-dioxido-2,3-dihydrobenzo[b]thiophen-5-yl)amino)-4-oxo-4,5-dihydro-1H-pyrazolo[4,3-c]pyridin-1-yl)cyclohexanecarbonitrile] in this work.

An IC50 (JAK1) of 0.11 nM and an IC50 (JAK2) of 0.4 nM were found for `CC(C)S(=O)(=O)c1ccc(Nc2nn([C@H]3CCC[C@@H]3C#N)c3cc[nH]c(=O)c23)cc1` [Example 3-105, (1S,2S)-2-[3-({4-[(1-methylethyl)sulfonyl]phenyl}amino)-4-oxo-4,5-dihydro-1H-pyrazolo[4,3-c]pyridin-1-yl]cyclopentanecarbonitrile] in this work.

An IC50 (JAK1) of 18 nM and an IC50 (JAK2) of 97 nM were found for `N#C[C@@H]1CCCC[C@H]1n1nc(Nc2ccnc(F)c2)c2c(=O)[nH]ccc21` [Example 3-1, (1R,2R)-2-{3-[(2-Fluoropyridin-4-yl)amino]-4-oxo-4,5-dihydro-1H-pyrazolo[4,3-c]pyridin-1-yl}cyclohexanecarbonitrile] in this work.

An IC50 (JAK1) of 0.28 nM and an IC50 (JAK2) of 7.3 nM were found for `N#C[C@H]1C[C@H](O)CC[C@@H]1n1nc(Nc2ccc(Cl)cc2)c2c(=O)[nH]ccc21` [Example 3-90, (1S,2S,5R)-2-(3-((4-chlorophenyl)amino)-4-oxo-4,5-dihydro-1H-pyrazolo[4,3-c]pyridin-1-yl)-5-hydroxycyclohexanecarbonitrile] in this work.

An IC50 (JAK1) of 0.23 nM and an IC50 (JAK2) of 0.37 nM were found for `CN(C(C)(C)C)S(=O)(=O)c1ccc(Nc2nn([C@@H]3CCCCC[C@H]3C#N)c3cc[nH]c(=O)c23)cc1` (single isomer, unassigned) [Example 15-51, N-tert-butyl-4-({1-[(1R,2R or 1S,2S)-2-cyanocycloheptyl]-4-oxo-4,5-dihydro-1H-pyrazolo[4,3-c]pyridin-3-yl}amino)-N-methylbenzenesulfonamide] in this work.

An IC50 (JAK1) of 0.22 nM and an IC50 (JAK2) of 0.48 nM were found for `CC(C)(C)NS(=O)(=O)c1ccc(Nc2nn([C@H]3CCC[C@@H]3C#N)c3cc[nH]c(=O)c23)cc1` [Example 3-107, N-tert-butyl-4-({1-[(1S,2S)-2-cyanocyclopentyl]-4-oxo-4,5-dihydro-1H-pyrazolo[4,3-c]pyridin-3-yl}amino)benzenesulfonamide] in this work.

An IC50 (JAK1) of 0.075 nM and an IC50 (JAK2) of 0.53 nM were found for `N#C[C@H]1CCC[C@@H]1n1nc(Nc2ccc(C(O)C(F)(F)F)cc2)c2c(=O)[nH]ccc21` (stereo partly drawn) [Example 3-98, (1S,2S)-2-(4-oxo-3-{[4-(2,2,2-trifluoro-1-hydroxyethyl)phenyl]amino}-4,5-dihydro-1H-pyrazolo[4,3-c]pyridin-1-yl)cyclopentanecarbonitrile] in this work.

An IC50 (JAK1) of 1.6 nM and an IC50 (JAK2) of 29 nM were found for `CC(C)(C)[S@@+]([O-])N[C@@H](c1cccc(Nc2nn([C@H]3CCCC[C@@H]3C#N)c3cc[nH]c(=O)c23)c1)C(F)(F)F` [Example 3-41, N-{(1S)-1-[3-({1-[(1S,2S)-2-cyanocyclohexyl]-4-oxo-4,5-dihydro-1H-pyrazolo[4,3-c]pyridin-3-yl}amino)phenyl]-2,2,2-trifluoroethyl}-2-methylpropane-2-sulfinamide] in this work.

An IC50 (JAK1) of 0.28 nM and an IC50 (JAK2) of 0.55 nM were found for `CC1(N2Cc3cc(Nc4nn([C@H]5CCCC[C@@H]5C#N)c5cc[nH]c(=O)c45)ccc3S2(=O)=O)CCC(F)(F)CC1` [Example 15-73, (1S,2S)-2-(3-{[2-(4,4-difluoro-1-methylcyclohexyl)-1,1-dioxido-2,3-dihydro-1,2-benzisothiazol-5-yl]amino}-4-oxo-4,5-dihydro-1H-pyrazolo[4,3-c]pyridin-1-yl)cyclohexanecarbonitrile] in this work.

An IC50 (JAK1) of 0.12 nM and an IC50 (JAK2) of 0.83 nM were found for `CS(=O)(=O)c1ccc(Nc2nn([C@H]3CCCC[C@@H]3C#N)c3cc[nH]c(=O)c23)cc1` [Example 3-5, (1S,2S)-2-(3-{[4-(methylsulfonyl)phenyl]amino}-4-oxo-4,5-dihydro-1H-pyrazolo[4,3-c]pyridin-1-yl)cyclohexanecarbonitrile] in this work.
